Results: ChEMBL document CHEMBL2163227, “Synthesis and biological characterization of a series of novel diaryl amide M₁ antagonists” (Bioorg Med Chem Lett, 2012)
Calls of active or inactive are those of the source. The calls are words filed in the database; no cut-off is given here.

How the values were obtained:
[1] = molecular target: T1, Muscarinic acetylcholine receptor M1 (Homo sapiens, UniProt P11229); test: (§1) Antagonist activity at human muscarinic M1 receptor; format: functional
T1 sequence (P11229 whole entry): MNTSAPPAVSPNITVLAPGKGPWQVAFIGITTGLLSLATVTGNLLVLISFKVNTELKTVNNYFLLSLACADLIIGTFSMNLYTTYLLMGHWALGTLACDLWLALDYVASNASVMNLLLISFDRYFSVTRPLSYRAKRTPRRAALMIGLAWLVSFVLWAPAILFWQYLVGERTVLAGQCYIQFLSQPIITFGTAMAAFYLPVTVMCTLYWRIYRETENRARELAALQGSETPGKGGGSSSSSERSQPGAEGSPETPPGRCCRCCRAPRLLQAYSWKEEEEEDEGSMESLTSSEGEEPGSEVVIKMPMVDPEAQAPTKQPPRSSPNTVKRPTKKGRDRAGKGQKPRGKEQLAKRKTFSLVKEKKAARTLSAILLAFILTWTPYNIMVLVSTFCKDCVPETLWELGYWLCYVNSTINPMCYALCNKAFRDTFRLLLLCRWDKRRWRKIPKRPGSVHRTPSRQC

[2] = molecular target: T2, Muscarinic acetylcholine receptor M1 (Homo sapiens) (UniProt P11229); test: as §1; format: functional; set-up: concentration or dose not given beside the values
T2 sequence (whole entry): T1 sequence (P11229 whole entry)

[3] = molecular target: T2, Muscarinic acetylcholine receptor M1 (Homo sapiens); test: Antagonist activity at human muscarinic M1 receptor at 30 uM; format: functional
[4] = molecular target: T2, Muscarinic acetylcholine receptor M1 (Homo sapiens); test: Antagonist activity at human muscarinic M1 receptor expressed in CHO cells assessed as inhibition of Ach-mediated response by calcium mobilization assay; format: functional, cell-based
[5] = molecular target: T3, Muscarinic acetylcholine receptor M5 (Homo sapiens, UniProt P08912); test: Antagonist activity at human muscarinic M5 receptor by calcium mobilization assay; format: functional
T3 sequence (P08912 whole entry): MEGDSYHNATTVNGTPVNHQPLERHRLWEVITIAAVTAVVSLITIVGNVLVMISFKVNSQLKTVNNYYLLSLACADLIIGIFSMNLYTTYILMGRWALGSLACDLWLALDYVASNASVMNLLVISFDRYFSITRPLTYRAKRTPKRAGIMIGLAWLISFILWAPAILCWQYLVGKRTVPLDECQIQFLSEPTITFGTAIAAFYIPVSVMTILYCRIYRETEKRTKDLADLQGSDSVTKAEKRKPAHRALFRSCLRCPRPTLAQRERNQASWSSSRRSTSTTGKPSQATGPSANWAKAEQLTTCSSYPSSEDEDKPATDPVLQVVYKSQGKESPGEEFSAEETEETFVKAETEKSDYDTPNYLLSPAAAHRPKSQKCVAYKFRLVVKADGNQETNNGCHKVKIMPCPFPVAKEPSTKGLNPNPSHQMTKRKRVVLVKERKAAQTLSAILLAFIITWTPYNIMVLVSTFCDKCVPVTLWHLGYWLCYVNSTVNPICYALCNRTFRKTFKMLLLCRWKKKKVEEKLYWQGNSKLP

[6] = molecular target: Muscarinic acetylcholine receptor M3 (Homo sapiens, UniProt P20309); test: Antagonist activity at human muscarinic M3 receptor by calcium mobilization assay; format: functional
Chain of Muscarinic acetylcholine receptor M3 (P20309 whole entry): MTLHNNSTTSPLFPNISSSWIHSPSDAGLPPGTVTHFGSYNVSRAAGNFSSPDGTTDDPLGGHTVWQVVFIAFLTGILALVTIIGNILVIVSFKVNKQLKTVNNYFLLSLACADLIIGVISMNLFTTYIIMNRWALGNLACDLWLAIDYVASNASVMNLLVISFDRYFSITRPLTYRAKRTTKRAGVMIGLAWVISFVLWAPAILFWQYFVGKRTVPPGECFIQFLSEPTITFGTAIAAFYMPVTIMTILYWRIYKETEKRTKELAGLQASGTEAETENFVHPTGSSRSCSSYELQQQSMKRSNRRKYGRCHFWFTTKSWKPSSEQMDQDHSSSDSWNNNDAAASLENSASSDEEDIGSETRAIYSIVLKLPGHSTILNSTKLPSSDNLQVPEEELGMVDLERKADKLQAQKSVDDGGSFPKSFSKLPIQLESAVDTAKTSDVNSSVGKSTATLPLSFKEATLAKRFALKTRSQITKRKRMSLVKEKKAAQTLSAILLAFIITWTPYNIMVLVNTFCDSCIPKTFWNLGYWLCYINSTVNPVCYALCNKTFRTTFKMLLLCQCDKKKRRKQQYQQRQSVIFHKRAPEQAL

[7] = molecular target: T4, Muscarinic acetylcholine receptor M2 (Homo sapiens, UniProt P08172); test: Antagonist activity at human muscarinic M2 receptor by calcium mobilization assay; format: functional
T4 sequence (P08172 whole entry): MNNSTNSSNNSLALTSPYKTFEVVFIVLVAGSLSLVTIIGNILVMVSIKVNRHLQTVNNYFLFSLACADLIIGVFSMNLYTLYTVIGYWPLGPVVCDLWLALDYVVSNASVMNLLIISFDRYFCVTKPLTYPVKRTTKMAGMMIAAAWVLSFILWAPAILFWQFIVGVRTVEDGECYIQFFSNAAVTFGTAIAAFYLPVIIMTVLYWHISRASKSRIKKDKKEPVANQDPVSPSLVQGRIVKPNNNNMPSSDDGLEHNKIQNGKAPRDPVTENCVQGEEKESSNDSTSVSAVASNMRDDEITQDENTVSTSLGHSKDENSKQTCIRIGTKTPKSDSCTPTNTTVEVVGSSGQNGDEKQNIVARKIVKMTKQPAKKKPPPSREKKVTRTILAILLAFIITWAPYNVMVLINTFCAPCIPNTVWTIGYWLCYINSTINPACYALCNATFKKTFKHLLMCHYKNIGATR

[8] = molecular target: T5, Muscarinic acetylcholine receptor M4 (Homo sapiens, UniProt P08173); test: Antagonist activity at human muscarinic M4 receptor by calcium mobilization assay; format: functional
T5 sequence (P08173 whole entry): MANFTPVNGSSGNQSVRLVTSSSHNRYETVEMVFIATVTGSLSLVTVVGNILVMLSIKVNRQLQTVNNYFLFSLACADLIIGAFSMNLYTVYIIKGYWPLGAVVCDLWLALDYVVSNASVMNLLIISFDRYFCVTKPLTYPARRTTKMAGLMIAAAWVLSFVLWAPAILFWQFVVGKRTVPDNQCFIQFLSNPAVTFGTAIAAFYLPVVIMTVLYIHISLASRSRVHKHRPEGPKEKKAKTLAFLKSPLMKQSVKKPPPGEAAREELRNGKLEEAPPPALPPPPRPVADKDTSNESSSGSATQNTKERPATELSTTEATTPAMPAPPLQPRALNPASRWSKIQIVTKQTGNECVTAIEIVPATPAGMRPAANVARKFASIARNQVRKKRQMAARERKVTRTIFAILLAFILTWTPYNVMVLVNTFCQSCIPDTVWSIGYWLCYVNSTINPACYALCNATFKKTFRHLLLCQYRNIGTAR

| Compound | IC50 ([1]; read-out: IC50) | Activity [2] | Activity [3] | other results |
| --- | --- | --- | --- | --- |
| CN1CCN(C(=O)C2(c3ccccc3)CC2c2ccccc2)CC1 (configuration not stated) | 2500 nM |  |  |  |
| CN1CCN(C(=O)C(Cc2ccccc2)c2ccccc2)C(c2ccccc2)C1 (configuration not stated) | > 10000 nM | 17.2% | inactive |  |
| CN1C[C@@H]2CN(C(=O)C(Cc3ccccc3)c3ccccc3)C[C@@H]2C1 (some centres not stated) | > 10000 nM | 6.7% | inactive |  |
| CN1CCN(C(=O)C(Cc2cccnc2)c2ccccc2)CC1 (configuration not stated) | 500 nM | 1.1% |  |  |
| CN1CCCN(C(=O)C(Cc2ccccc2)c2ccccc2)CC1 (configuration not stated) | 100 nM | 2% |  |  |
| CCN1CCN(C(=O)C(Cc2ccccc2)c2ccccc2)CC1 (configuration not stated) | 570 nM | 1.8% |  |  |
| CN1CCN(C(=O)[C@H](Cc2ccccc2)c2ccccc2)CC1 | 33 nM |  |  | inhibition [4]: Dose-dependent effect |
| CCN1CCN(C(=O)C(Cc2ccccc2)c2ccccc2)CC1(C)C (configuration not stated) | 90 nM | 1.5% |  |  |
| CN1CCN(C(=O)[C@@H](Cc2ccccc2)c2ccccc2)CC1 |  | inactive |  |  |
| CC(C)N1CCCN(C(=O)C(Cc2ccccc2)c2ccccc2)CC1 (configuration not stated) | 100 nM | 2.4% |  |  |
| CN1CCN(C(=O)C(Cc2ccncc2)c2ccccc2)CC1 (configuration not stated) | 880 nM | 3.5% |  |  |
| CCN1CCCN(C(=O)C(Cc2ccccc2)c2ccccc2)CC1 (configuration not stated) | 38 nM | 2.2% |  |  |
| CN1CCN(C(=O)[C@H](Oc2ccccc2)c2ccccc2)CC1 (mixture of isomers) | 240 nM | 3.4% |  |  |
| O=C(C(Cc1ccccc1)c1ccccc1)N1CCNCC1 (configuration not stated) | > 10000 nM | 26.1% | inactive |  |
| CN1CCC(N2CCN(C(=O)C(Cc3ccccc3)c3ccccc3)CC2)CC1 (configuration not stated) |  | inactive |  |  |
| O=C(C(Cc1ccccc1)c1ccccc1)N1CCN(CC(F)(F)F)CC1 (configuration not stated) |  | inactive |  |  |
| C[N+]1(C)CCN(C(=O)C(Cc2ccccc2)c2ccccc2)CC1 (configuration not stated) | > 10000 nM | 8.7% | inactive |  |
| CN1CCN(C(=O)C(F)(Cc2ccccc2)c2ccccc2)CC1 (configuration not stated) | 29 nM | 3.1% |  | EC50 [1]: 28.2 nM |
| CN1CCN(C(=O)[C@@](F)(Cc2ccccc2)c2ccccc2)CC1 (mixture of isomers) | 18 nM | 2.7% |  | IC50 [5]: 82 nM; IC50 [6]: > 1500 nM; IC50 [7]: > 1500 nM; inhibition [4]: Dose-dependent effect; IC50 [8]: 140 nM |
| CN1CCN(C(=O)/C(=C\c2ccccc2)c2ccccc2)CC1 | 180 nM |  |  |  |

Now from value to compound, other results behind:

| IC50 ([1]; read-out: IC50) | Activity [2] | Activity [3] | Compound | other results |
| --- | --- | --- | --- | --- |
| 370 nM | 6.43% |  | O=C(C(Cc1ccccc1)c1ccccc1)N1CC[C@H]2CCCN2CC1 (some centres not stated) | IC50 ([1]; read-out: pIC50 (converted)): 2140 nM |
| 3800 nM | 3.5% |  | O=C(C(Cc1ccccc1)c1ccccc1)N1CCC(N2CCCC2)CC1 (configuration not stated) |  |
| > 10000 nM | 28.5% | inactive | O=C(C(Cc1ccccc1)c1ccccc1)N1CCN(c2ccncc2)CC1 (configuration not stated) |  |
| > 10000 nM | 107% |  | CN1CCN(C(=O)[C@@H](Oc2ccccc2)c2ccccc2)CC1 (racemic) |  |
| 44 nM | 2.4% |  | CN1CCN(C(=O)C(Cc2ccccc2)c2ccccc2)CC1 (racemic) |  |
| > 10000 nM | 24.3% | inactive | O=C(C(Cc1ccccc1)c1ccccc1)N1CCCNCC1 (configuration not stated) |  |
| 260 nM | 1.4% |  | CCN1CCN(C(=O)C(Cc2ccccc2)c2ccccc2)CC1C (configuration not stated) |  |
| > 10000 nM | 39.1% |  | CN1CCN(C(=O)C(C)(Cc2ccccc2)c2ccccc2)CC1 (configuration not stated) |  |
| 2400 nM | 2.1% |  | CN1CCN(C(=O)[C@](F)(Cc2ccccc2)c2ccccc2)CC1 (mixture of isomers) |  |
| > 10000 nM | 37.1% | inactive | CN(C)CCN(C)C(=O)C(Cc1ccccc1)c1ccccc1 (configuration not stated) |  |
| 440 nM | 1.3% |  | CC(C)N1CCN(C(=O)C(Cc2ccccc2)c2ccccc2)CC1 (configuration not stated) |  |
| 140 nM | 1.5% |  | CN(C)CCOC(=O)C(Cc1ccccc1)c1ccccc1 (configuration not stated) |  |
| 2000 nM | 0.5% |  | O=C(C(Cc1ccccc1)c1ccccc1)N1CCN2CCCCC2C1 (configuration not stated) |  |
| > 10000 nM | 3.5% | inactive | CN(C)CCNC(=O)C(Cc1ccccc1)c1ccccc1 (configuration not stated) |  |
| > 10000 nM | 62.8% | inactive | CN1CCN(C(=O)C(Cc2ccccc2)c2ccccc2)CC1c1ccccc1 (configuration not stated) |  |
| > 10000 nM | 29.6% | inactive | CC1CCN(C)CCN1C(=O)C(Cc1ccccc1)c1ccccc1 (configuration not stated) |  |
| > 10000 nM | 35.9% | inactive | CC(C)CN1CCN(C(=O)C(Cc2ccccc2)c2ccccc2)CC1 (configuration not stated) |  |
| > 10000 nM | 10.9% | inactive | COCCN1CCN(C(=O)C(Cc2ccccc2)c2ccccc2)CC1 (configuration not stated) |  |
| 100 nM | 1.4% |  | CC1CN(C(=O)C(Cc2ccccc2)c2ccccc2)CCN1C (configuration not stated) |  |
